Measured values as given in patent US20050282793A1, “Steroid prodrugs with androgenic action” (priority 2004, published 2005).
Where two headings read alike, the source gives them in different places.

Experiments:
erythrocytes = assay: Binding to erythrocytes: displacement of estradiol-3-sulfamate from the erythrocyte bond (RBA); set-up: species or system human; settings: for RBA in Erythrocytes: human blood, displacement of 14C-labeled estradiol sulfamate, estradiol-3-sulfamate = 100
Experimental: The SO2—NH2 group of the compounds according to the invention can result in a concentration in erythrocytes by binding to carboanhydrases. The displacement of estradiol-3-sulfamate from the erythrocyte bond by test substances is measured. Test preparation: human blood is mixed with a mixture that consists of ^14C-labeled and unlabeled estradiol sulfamate. The erythrocytes are saturated at the selected working point. The distribution in plasma/erythrocytes is 40:60. A second blood sample is mixed with a mixture that consists of ^14C-labeled estradiol sulfamate and unlabeled test substance. The relative binding affinity is calculated from the proportion of ^14C-labeled estradiol sulfamate in plasma: higher proportion=strong displacement of ^14C-estradiol sulfamate from the erythrocytes by the test substance=high binding affinity of the test substances to the erythrocytes.

[1] = Determination of the erythrocyte/plasma distribution ratio; type: in vitro ADME; settings: freshly obtained, heparinized blood
Experimental: Freshly obtained, heparinized blood is mixed with a defined amount of test substance. The concentration in the plasma obtained therefrom is measured. The erythrocyte/plasma distribution ratio is calculated from the measured concentration of the entire substance in plasma and the concentration that is used.

Human Carboanhydrase I = Human Carboanhydrase I (Homo sapiens, UniProt P00915); assay: Carboanhydrase I inhibition (CO2 hydration); type: biochemical
Chain of Human Carboanhydrase I (P00915 whole entry): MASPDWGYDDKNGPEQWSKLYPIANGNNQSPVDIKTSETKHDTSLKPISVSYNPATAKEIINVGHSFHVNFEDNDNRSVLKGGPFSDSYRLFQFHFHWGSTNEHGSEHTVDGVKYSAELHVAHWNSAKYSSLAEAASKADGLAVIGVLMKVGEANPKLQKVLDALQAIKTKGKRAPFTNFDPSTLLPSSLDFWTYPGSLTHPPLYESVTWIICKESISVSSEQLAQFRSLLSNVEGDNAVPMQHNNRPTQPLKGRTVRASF
Experimental: Carboanhydrases catalyze the CO2 hydration.
Test preparation: A constant CO2 stream is directed by a buffer that was mixed with carboanhydrase I. The time that is required to reduce the pH within defined limits is a measuring parameter. This parameter reflects the formation of H2CO3 in the medium. IC50 inhibiting values are determined by test substances being pipetted into the test preparation.

[2] = tested on: gonadally intact, adult, sexually mature rats; assay: Test (III), oral treatment over 6 weeks; type: in vivo, rat
Experimental: (§1) • Method: Adult male rats, of about 300 g of body weight, are castrated and treated orally over 7 days with MENT and compound 12 according to the invention. On the 8th day of the test, the animals are sacrificed, and the hormonal effects of the test substances are evaluated (growth of the accessory sex glands, reduction of the gonadotropic hormones in plasma, parameters of hepatic actions: effects on HDL lipoproteins, determination of MENT in the plasma). Test (III) on Gonadally Intact Adult Sexually Mature Rats Over 6 Weeks
• Method: Adult male rats of above 300 g of body weight are treated orally over 6 weeks with MENT and compounds 12 or 5 according to the invention. At the end of the test, the animals are sacrificed, and the hormonal effects of the test substances are evaluated (weight of the testes and the accessory sex glands, reduction of the gonadotropic hormones and testosterone in the plasma during the course of the test, parameters of hepatic actions: effects on HDL lipoproteins).

[3] = tested on: sexually immature, castrated male rats; assay: Test (I), oral treatment over 7 days, evaluation on day 8; type: in vivo, rat
Experimental: Test (I) on Sexually Immature, Castrated Male Rats Over 8 Days
Method: Male rats weighing about 45 g of body weight are castrated and treated orally over 7 days with MENT and with compounds 12 or 18 according to the invention. On the 8th day of the test, the animals are sacrificed, and the hormonal effects of the test substances are evaluated (growth of the accessory sex glands, reduction of gonadotropic hormones in plasma, parameters of hepatic actions: effects on HDL lipoproteins).

[4] = tested on: sexually mature, castrated male rats; assay: Test (II), oral treatment over 7 days, evaluation on day 8; type: in vivo, rat
Experimental: Test (II) on Sexually Mature, Castrated Male Rats Over 8 Days
as §1

[5] = tested on: accessory sex glands (prostate); assay: Hershberger Test (comparison of m- and p-substituted compound; test not specified); type: in vivo, rat; settings: m-substituted compound 12 compared to p-substituted compound 11

Structure (SMILES) | RBA in Erythrocytes (erythrocytes) | Distribution Ratio with Erythrocytes/Plasma [1] | IC50 (Human Carboanhydrase I) [nM] | growth of the accessory sex glands [3] | further results
C[C@]12CC[C@H]3[C@@H](CCC4=CC(=O)CC[C@@]43C)[C@@H]1CC[C@@H]2OC(=O)c1ccc(S(N)(=O)=O)cc1 [Compound 1, 3-Oxoandrost-4-en-17β-yl 4′-sulfamoyl benzoate] | 48 | 9 | 370 |  | 
COc1ccc(S(N)(=O)=O)cc1C(=O)O[C@H]1CC[C@H]2[C@@H]3CCC4=CC(=O)CC[C@]4(C)[C@H]3CC[C@]12C [Compound 4, 3-Oxoandrost-4-en-17β-yl 2′-methoxy-5′-sulfamoyl benzoate] | 0.8 | 2 |  |  | 
C[C@]12CC[C@H]3[C@@H](CCC4=CC(=O)CC[C@@]43C)[C@@H]1CC[C@@H]2OC(=O)c1cccc(S(N)(=O)=O)c1 [Compound 5, 3-Oxoandrost-4-en-17β-yl 3′-sulfamoyl benzoate] | 1.3 | 2 | 880 |  | changes in hepatic parameters [2]: especially small changes in hepatic parameters
C[C@]12CC[C@H]3[C@@H](CCC4=CC(=O)CC[C@@H]43)[C@@H]1CC[C@@H]2OC(=O)c1ccc(S(N)(=O)=O)cc1 [Compound 8, 3-Oxoestr-4-en-17β-yl 4′-sulfamoyl benzoate] | 24 | 7 |  |  | 
C[C@@H]1CC2=CC(=O)CC[C@@H]2[C@H]2CC[C@]3(C)[C@@H](OC(=O)c4ccc(S(N)(=O)=O)cc4)CC[C@H]3[C@@H]21 [Compound 11, 3-Oxo-7α-methylestr-4-en-17β-yl 4′-sulfamoyl benzoate] |  |  |  |  | IC50 (Human Carboanhydrase I; human carboanhydrase I, read-out: CAI IC50): 200 to 400 nM
C[C@@H]1CC2=CC(=O)CC[C@@H]2[C@H]2CC[C@]3(C)[C@@H](OC(=O)c4cccc(S(N)(=O)=O)c4)CC[C@H]3[C@@H]21 [Compound 12, 3-Oxo-7α-methylestr-4-en-17β-yl 3′-sulfamoyl benzoate] | 2.1 | 3 | 600 | strong dose-dependent effects on the growth of the accessory sex glands | bond strength to the erythrocytes (in words) (erythrocytes; m-substituted versus 4'-sulfamoyl benzoates): lower bond strength to the erythrocytes; levels of MENT in the plasma ([4]; after oral administration): significantly higher levels of MENT are achieved in the plasma than after the administration of MENT itself; growth of the accessory sex glands ([4]; oral, 7 days): unexpectedly strong, dose-dependent effects on the growth of the accessory sex glands; antigonadotropic effects [2]: Superior antigonadotropic effects; effects on the accessory sex glands (weights of seminal vesicles and prostates) [2]: induced in a dose-dependent way an increase of the weights of the seminal vesicles and prostates beyond the level of intact controls; activity in the Hershberger Test [5]: higher activity in the Hershberger Test compared to the p-substituted compound 11
C[C@]12CC[C@H]3[C@@H](CCC4=CC(=O)CC[C@@]43C)[C@@H]1CC[C@@H]2OC(=O)CCc1ccc(S(N)(=O)=O)cc1 [Compound 14, 3-Oxoandrost-4-en-17β-yl 4′-sulfamoylphenylpropionate] | 3.4 | 4 |  |  | 
C[C@]12CC[C@H]3[C@@H](CCC4=CC(=O)CC[C@@]43C)[C@@H]1CC[C@@H]2OC(=O)c1cc(S(N)(=O)=O)ccc1O [Compound 18, 3-Oxoandrost-4-en-17β-yl 2′-hydroxy-5′-sulfamoyl Benzoate] | 1.4 | 2 |  | strong dose-dependent effects on the growth of the accessory sex glands | 
C[C@]12CC[C@@H]3c4ccc(OS(N)(=O)=O)cc4CC[C@H]3[C@@H]1CC[C@@H]2O [Estradiol-3-sulfamate, reference compound] | 100 | 48 |  |  | 
C[C@@H]1CC2=CC(=O)CC[C@@H]2[C@H]2CC[C@]3(C)[C@@H](O)CC[C@H]3[C@@H]21 [MENT, 7α-methyl-19-nortestosterone, reference compound] |  |  |  | only marginal effects | reduction of HDL [3]: even more active than the substances according to the invention; growth of the accessory sex glands ([4]; oral, 7 days): only marginal effects; reduction of HDL ([4]; oral, 7 days): even more active than the substances according to the invention; effects on the accessory sex glands (weights of seminal vesicles and prostates) [2]: A corresponding effect even in the case of extremely high dosage did not occur; reduction of HDL [2]: even more effective than the substances according to the invention
